Measured values: patent publication US9302999B2, “Substituted triazoles as herbicides” (E. I. DU PONT DE NEMOURS AND COMPANY, priority 2012, dated 2016)

What was measured:
[1] = tested on: kochia (Kochia scoparia); experiment: Test E pre-/postemergence: kochia; assay type: in vivo; settings: Preemergence, scale 0 to 100
From the text: (§1) Seeds of plant species selected from corn (Zea mays), soybean (Glycine max), velvetleaf (Abutilon theophrasti), lambsquarters (Chenopodium album), poinsettia, wild (wild poinsettia, Euphorbia heterophylla), pigweed, palmer (palmer pigweed, Amaranthus palmeri), waterhemp (common waterhemp, Amaranthus rudis), smartweed (ladysthumb smartweed, Polygonum persicaria), surinam grass (Brachiaria decumbens), crabgrass, large (large crabgrass, Digitaria sanguinalis), crabgrass, Brazil (Brazilian crabgrass, Digitaria horizontalis), panicum, fall (fall panicum, Panicum dichotomiflorum), foxtail, giant (giant foxtail, Setaria faberii), foxtail, green (green foxtail, Setaria viridis), goosegrass (Eleusine indica), johnsongrass (Sorghum halepense), ragweed (common ragweed, Ambrosia elation), barnyardgrass (Echinochloa crus-galli), sandbur (southern sandbur, Cenchrus echinatus), arrowleaf sida (Sida rhombifolia), ryegrass, Italian (Italian ryegrass, Lolium multiflorum), dayflower, (VA) (Virginia dayflower, Commelina virginica), field bindweed (Convolvulus arvensis), cocklebur (common cocklebur, Xanthium strumarium), morningglory (Ipomoea coccinea), nightshade (eastern black nightshade, Solanum ptycanthum), kochia (Kochia scoparia), nutsedge, yellow (yellow nutsedge, Cyperus esculentus) and beggarticks (hairy beggarticks, Bidens pilosa) were planted into a silt loam soil and treated preemergence with test chemicals formulated in a non-phytotoxic solvent mixture which included a surfactant. At the same time, plants selected from these crop and weed species were planted in pots containing a growing medium comprising spaghnum peat moss, vermiculite, wetting agent and starter nutrients and treated with postemergence applications of some of the test chemicals formulated in the same manner. Plants ranged in height from 2 to 18 cm for postemergence treatments (1- to 4-leaf stage).
(§2) Treated plants and controls were maintained in a greenhouse for 14 to 21 days, after which time all species were compared to controls and visually evaluated. Plant response ratings, summarized in Table E, are based on a scale of 0 to 100 where 0 is no effect and 100 is complete control. A dash (-) response means no test result.

[2] = tested on: velvetleaf (Abutilon theophrasti); experiment: Test E pre-/postemergence: velvetleaf; assay type: in vivo; settings: Preemergence, scale 0 to 100
From the text: as §1, §2

[3] = tested on: cocklebur (common cocklebur, Xanthium strumarium); experiment: Test E pre-/postemergence: cocklebur; assay type: in vivo; settings: Preemergence, scale 0 to 100
From the text: as §1, §2

[4] = tested on: beggarticks (hairy beggarticks, Bidens pilosa); experiment: Test F pre-/postemergence: beggarticks; assay type: in vivo
From the text: (§3) Seeds of plant species selected from corn (Zea mays), soybean (Glycine max), velvetleaf (Abutilon theophrasti), lambsquarters (Chenopodium album), poinsettia, wild (wild poinsettia, Euphorbia heterophylla), pigweed, palmer (palmer pigweed, Amaranthus palmeri), waterhemp (common waterhemp, Amaranthus rudis), surinam grass (Brachiaria decumbens), crabgrass, Brazil (Brazilian crabgrass, Digitaria horizontalis), panicum, fall (fall panicum Panicum dichotomiflorum), crabgrass, large (large crabgrass, Digitaria sanguinalis), foxtail, giant (giant foxtail, Setaria faberii), foxtail, green (green foxtail Setaria viridis), goosegrass (Eleusine indica), ragweed (common ragweed, Ambrosia elatior), barnyardgrass (Echinochloa crus-galli), sandbur (southern sandbur, Cenchrus echinatus), arrowleaf sida (Sida rhombifolia), ryegrass, Italian (Italian ryegrass, Lolium multiflorum), dayflower, VA (Virginia (VA) dayflower, Commelina virginica), field bindweed (Convolvulus arvensis), cocklebur (common cocklebur, Xanthium strumarium), morningglory (Ipomoea coccinea), nightshade (eastern black nightshade, Solanum ptycanthum), kochia (Kochia scoparia), nutsedge, yellow (yellow nutsedge, Cyperus esculentus), johnsongrass (Sorghum halepense), smartweed (ladysthumb smartweed, Polygonum persicaria), and beggarticks (hairy beggarticks, Bidens pilosa), were planted into a silt loam soil and treated preemergence with test chemicals formulated in a non-phytotoxic solvent mixture which included a surfactant. At the same time, plants selected from these crop and weed species and also pigweed (Amaranthus retroflexus), waterhemp_RES1 (ALS/Triazine resistant common waterhemp, Amaranthus rudis) and waterhemp_RES2 (ALS/HPPD resistant common waterhemp, Amaranthus rudis) were planted in pots containing a planting medium comprising spaghnum peat moss, vermiculite, wetting agent and starter nutrients treated with postemergence applications of some of the test chemicals formulated in the same manner. Plants ranged in height from 2 to 18 cm for postemergence treatments (1- to 4-leaf stage).
as §2

[5] = tested on: foxtail, giant (giant foxtail, Setaria faberii); experiment: Test F pre-/postemergence: foxtail, giant; assay type: in vivo; settings: Preemergence
From the text: as §3, §2

[6] = tested on: Barnyardgrass; experiment: Test C postemergence: barnyardgrass; assay type: in vivo, Echinochloa crus-galli; settings: 125 g ai/ha, scale 0 to 100, 0 no effect, 100 complete control
From the text: Seeds of plant species selected from blackgrass (Alopecurus myosuroides), bromegrass, downy (downy bromegrass, Bromus tectorum), foxtail, green (green foxtail, Setaria viridis), ryegrass, Italian (Italian ryegrass, Lolium multiflorum), winter wheat (Triticum aestivum), wild oat (Avena fatua), galium (catchweed bedstraw, Galium aparine), bermudagrass (Cynodon dactylon), surinam grass (Brachiaria decumbens), cocklebur (common cocklebur, Xanthium strumarium), corn (Zea mays), large crabgrass (Digitaria sanguinalis), woolly cupgrass (Eriochloa villosa), foxtail, giant (giant foxtail, Setaria faberii), goosegrass (Eleusine indica), johnsongrass (Sorghum halepense), kochia (Kochia scoparia), lambsquarters (Chenopodium album), morningglory (Ipomoea coccinea), nightshade (eastern black nightshade, Solanum ptycanthum), nutsedge, yellow (yellow nutsedge, Cyperus esculentus), pigweed (Amaranthus retroflexus), ragweed (common ragweed, Ambrosia elation), soybean (Glycine max), common (oilseed) sunflower (Helianthus annuus), Russian thistle (Salsola kali) and velvetleaf (Abutilon theophrasti) were planted into a blend of loam soil and sand and treated preemergence with test chemicals formulated in a non-phytotoxic solvent mixture which included a surfactant.
At the same time, plants selected from these crop and weed species and also barley (winter barley, Hordeum vulgare), canarygrass (Phalaris minor), chickweed (common chickweed, Stellaria media) windgrass (Apera spica-venti) and deadnettle (henbit deadnettle, Lamium amplexicaule) were planted in pots containing Redi-Earth® planting medium (Scotts Company, 14111 Scottslawn Road, Marysville, Ohio 43041) comprising spaghnum peat moss, vermiculite, wetting agent and starter nutrients and treated with postemergence applications of test chemicals formulated in the same manner. Plants ranged in height from 2 to 18 cm (1- to 4-leaf stage) for postemergence treatments.
as §2, with “13” for “14”, “15” for “21”, “C,” for “E,”

[7] = tested on: Oilseed Rape; experiment: Test C preemergence: oilseed rape; assay type: in vivo; settings: scale 0 (no effect) to 100 (complete control)
[8] = Preemergence, 16 g ai/ha, scale 0 to 100 (0 no effect, 100 complete control)
[9] = Preemergence, 31 g ai/ha, scale 0 to 100 (0 no effect, 100 complete control)
[10] = Preemergence, 62 g ai/ha, scale 0 to 100
[11] = Preemergence, 125 g ai/ha, scale 0 to 100
[12] = 16 g ai/ha, scale 0 to 100 (0 no effect, 100 complete control)
[13] = 31 g ai/ha, scale 0 to 100 (0 no effect, 100 complete control)
[14] = Postemergence, 8 g ai/ha, scale 0 to 100
[15] = Postemergence, 16 g ai/ha, scale 0 to 100
[16] = Postemergence, 31 g ai/ha, scale 0 to 100
[17] = Postemergence, 62 g ai/ha, scale 0 to 100

SMILES	Plant response rating: Kochia ([1]; 16 g ai/ha)	Plant response rating: Kochia ([1]; 31 g ai/ha)	Plant response rating: Kochia ([1]; 62 g ai/ha)	Plant response rating: Kochia ([1]; 125 g ai/ha)	Plant response rating: Velvetleaf ([2]; 16 g ai/ha)	Plant response rating: Velvetleaf ([2]; 31 g ai/ha)	Plant response rating: Velvetleaf ([2]; 62 g ai/ha)	Plant response rating: Velvetleaf ([2]; 125 g ai/ha)	Plant response rating: Cocklebur ([3]; 16 g ai/ha)	Plant response rating: Cocklebur ([3]; 31 g ai/ha)	Plant response rating: Cocklebur ([3]; 62 g ai/ha)	Plant response rating: Cocklebur ([3]; 125 g ai/ha)	Plant response rating, Beggarticks [4, 8]	Plant response rating, Beggarticks [4, 9]	Plant response rating, Beggarticks [4, 10]	Plant response rating, Foxtail, Giant [5, 12]	Plant response rating, Foxtail, Giant [5, 13]	Plant response rating, Foxtail, Giant ([5]; 62 g ai/ha, scale 0 to 100)	Plant response rating, Barnyardgrass [6]	further results
Cc1nn(-c2ccc(F)cc2)nc1Cc1ccnc(C(F)(F)F)c1 [Compound 16, 4-[[2-(4-fluorophenyl)-5-methyl-2H-1,2,3-triazol-4-yl]methyl]-2-(trifluoromethyl)pyridine]	20	70	100	100	20	30	80	80	0	0	0	0	–	–	–	–	–	–	–	Plant response rating: Kochia ([1]; 8 g ai/ha): 0; Plant response rating: Velvetleaf ([2]; 8 g ai/ha): 0
Cc1nn(-c2ccc(C(F)(F)F)cc2)nc1Cc1ccnc(C(F)(F)F)c1 [Compound 47, 4-[[5-methyl-2-[4-(trifluoromethyl)phenyl]-2H-1,2,3-triazol-4-yl]methyl]-2-(trifluoromethyl)pyridine]	25	35	100	100	30	40	40	75	0	10	20	35	–	–	–	–	–	–	–	Plant response rating: Kochia ([1]; 250 g ai/ha): 100; Plant response rating: Velvetleaf ([2]; 250 g ai/ha): 100; Plant response rating: Cocklebur ([3]; 250 g ai/ha): 50
Cc1nn(-c2ccc(F)cc2)nc1Oc1ccnc(C(F)(F)F)c1 [Compound 129, 4-[[2-(4-fluorophenyl)-5-methyl-2H-1,2,3-triazol-4-yl]oxy]-2-(trifluoromethyl)pyridine]	35	50	95	95	0	0	20	25	0	0	35	35	–	–	–	–	–	–	–	Plant response rating: Kochia ([1]; 8 g ai/ha): 35; Plant response rating: Velvetleaf ([2]; 8 g ai/ha): 0; Plant response rating: Cocklebur ([3]; 8 g ai/ha): 0
Fc1ccc(-n2nc(Cc3ccnc(C(F)(F)F)c3)c(OCC(F)(F)F)n2)cc1 [Compound 142]	–	–	–	–	–	–	–	–	–	–	–	–	0	40	65	35	75	100	–	Plant response rating, Beggarticks [4, 11]: 75; Plant response rating, Foxtail, Giant ([5]; 125 g ai/ha, scale 0 to 100): 100
Cc1nn(-c2ccc(F)c(F)c2)nc1Oc1ccnc(C(F)(F)F)c1 [Compound 145]	–	–	–	–	–	–	–	–	–	–	–	–	–	–	–	–	–	–	–	Plant response rating, Beggarticks [4, 14]: 10; Plant response rating, Beggarticks [4, 15]: 25; Plant response rating, Beggarticks [4, 16]: 30; Plant response rating, Beggarticks [4, 17]: 35; Plant response rating, Beggarticks ([4]; Postemergence, 125 g ai/ha, scale 0 to 100): 45
CCCc1nn(-c2ccc(F)cc2)nc1Cc1ccnc(C(F)(F)F)c1 [Compound 153]	–	–	–	–	–	–	–	–	–	–	–	–	0	25	35	40	85	100	45	Plant response rating, Beggarticks [4, 11]: 65; Plant response rating, Foxtail, Giant ([5]; 125 g ai/ha, scale 0 to 100): 100; Plant response rating, Foxtail, Giant ([5]; 250 g ai/ha, scale 0 to 100): 100
Cc1nn(-c2ccc(C(F)(F)F)c(F)c2)nc1Cc1ccnc(C(F)(F)F)c1 [Compound 162]	–	–	–	–	–	–	–	–	–	–	–	–	0	0	0	70	100	100	90	Plant response rating, Beggarticks ([4]; Postemergence, 4 g ai/ha, scale 0 to 100): 15; Plant response rating, Beggarticks [4, 14]: 20; Plant response rating, Beggarticks [4, 15]: 25; Plant response rating, Beggarticks [4, 16]: 25; Plant response rating, Beggarticks [4, 17]: 30; Plant response rating, Beggarticks ([4]; Preemergence, 4 g ai/ha, scale 0 to 100, 0 no effect, 100 complete control): 0; Plant response rating, Beggarticks ([4]; Preemergence, 8 g ai/ha, scale 0 to 100, 0 no effect, 100 complete control): 0; Plant response rating, Foxtail, Giant ([5]; 4 g ai/ha, scale 0 to 100, 0 no effect, 100 complete control): 0; Plant response rating, Foxtail, Giant ([5]; 8 g ai/ha, scale 0 to 100, 0 no effect, 100 complete control): 20
CCc1nn(-c2ccc(F)cc2)nc1Oc1ccnc(C(F)(F)F)c1 [Compound 166]	–	–	–	–	–	–	–	–	–	–	–	–	–	–	–	–	–	–	45	Plant response rating, Oilseed Rape ([7]; 31 g ai/ha): 50
CCCc1nn(-c2ccc(C(F)(F)F)c(F)c2)nc1Oc1ccnc(C(F)(F)F)c1 [Compound 185]	–	–	–	–	–	–	–	–	–	–	–	–	–	–	–	–	–	–	70	Plant response rating, Oilseed Rape ([7]; 31 g ai/ha): 60
CCOc1nn(-c2ccc(Br)cc2)nc1Cc1ccnc(C(F)(F)F)c1 [Compound 189]	–	–	–	–	–	–	–	–	–	–	–	–	–	–	–	–	–	–	–	Plant response rating, Oilseed Rape ([7]; 16 g ai/ha): 5
